Test results from patent publication US8592395B2, “Therapeutic compounds” (GlaxoSmithKline LLC, priority 2009, dated 2013).

Tested on: HIV
Assay: HOS assay (HOS-Luc HIV-1 LTR-luciferase reporter antiviral assay)
Format: cell-based
Conditions: Human immunodeficiency virus 1, 96 h; HOS-Luc cells (HOS-CD4.CCR5 with HIV-1 LTR-luciferase reporter), four-day incubation with virus, luciferase readout
Experimental: HOS-Luc cells were created by introducing an HIV-1 LTR-luciferase reporter into HOS-CD4.CCR5 (NIH AIDS Research and Reference Reagents Program, cat. #3318). The cells were propagated in DMEM complete medium. Cells were split 1:20 by standard trypsinization when confluency reached 80% (roughly every 2 to 3 days).
Black-walled 96-well tissue culture plates were seeded with HOS-Luc at 6×10^3 cells per well in 50 μL DMEM containing 2% FBS and placed in a humidified incubator at 37° C., 5% CO2 overnight. The following day, test compounds were serially diluted in 4-fold increments at 2× the final concentration in DMEM+2% FBS+0.2% DMSO. Diluted compound (50 μL) was transferred to the HOS-Luc cells and the plates were placed in a humidified incubator at 37° C., 5% CO2 for 1 hr. An additional 60 μL of 2× compound was transferred to a clear-walled 96-well tissue culture plate and 60 μL of virus (diluted 1:50 in tissue culture media) was added to each well and thoroughly mixed. The virus input was previously determined by titrating the virus under assay conditions without compound and selecting a dilution that gives a response in the linear range of the curve and a signal to background of at least 30. The HIV/compound mixture (100 μL) was transferred to the black-walled plates containing 100 μL of cells/compound. The plates were placed in a humidified incubator at 37° C., 5% CO2 for four days. Following the four-day incubation, 150 μL of supernatant was removed and 50 μL of reconstituted Luclite (Promega) was added to each well. For cytotoxicity assessment, 50 μL of reconstituted CellTiter-GLo (Promega) was added to each well. Each plate was topsealed and read in a Topcount (Packard) luminometer at 1 s/well.
Raw data from the HOS-Luc assay were expressed as Relative Light Units (RLU) and normalized according to the following formula: (RLU at drug [ ]/RLU no drug)*100=% control
The potency of test compounds are reported as IC50 values derived from the four parameter Hill equation, defined as: y=Vmax*(1−(x^n/(K^n+x^n)))+Y2 Where:
y=normalized response data
Vmax=upper bound of response
Y2=lower bound or baseline of response

`Cc1nc2ccccc2n1[C@H]1C[C@H]2CC[C@@H](C1)N2CCC(CNS(=O)(=O)c1ccccc1)c1ccccc1` (stereo partly drawn) [Example 1, N-{4-[(1R,5S)-3-(2-methyl-1H-benzimidazol-1-yl)-8-azabicyclo[3.2.1]oct-8-yl]-2-phenylbutyl}] and `Cc1nc2ccncc2n1[C@H]1C[C@H]2CC[C@@H](C1)N2CCC(CNS(=O)(=O)c1ccccc1)c1ccccc1` (stereo partly drawn) [Example 11, N-{4-[(1R,5S)-3-(2-methyl-3H-imidazo[4,5-c]pyridin-3-yl)-8-azabicyclo[3.2.1]oct-8-yl]-2-phenylbutyl}benzenesulfonamide] fall in the same range of IC50: 10 to 100 nM for the first, 10 to 100 nM for the second.

`Cc1nc2ccccc2n1[C@H]1C[C@H]2CC[C@@H](C1)N2CCC(CN(C)S(=O)(=O)c1ccccc1)c1ccccc1` (stereo partly drawn) [Example 2, N-methyl-N-{4-[(1R,5S)-3-(2-methyl-1H-benzimidazol-1-yl)-8-azabicyclo[3.2.1]oct-8-yl]-2-phenylbutyl}benzenesulfonamide] and `Cc1nc2ccccc2n1[C@H]1C[C@H]2CC[C@@H](C1)N2CCC(C)(CN(C)S(=O)(=O)c1ccccc1)c1ccccc1` (stereo partly drawn) [Example 20, N-methyl-N-{2-methyl-4-[(1R,5S)-3-(2-methyl-1H-benzimidazol-1-yl)-8-azabicyclo[3.2.1]oct-8-yl]-2-phenylbutyl}benzenesulfonamide] cannot be ordered by IC50: under 10 nM for the first, under 10 nM for the second.

`Cc1nc2ccccc2n1[C@H]1C[C@H]2CC[C@@H](C1)N2CCC(CNS(=O)(=O)c1cccc(C#N)c1)c1ccccc1` (stereo partly drawn) [Example 3, 3-cyano-N-{4-[(1R,5S)-3-(2-methyl-1H-benzimidazol-1-yl)-8-azabicyclo[3.2.1]oct-8-yl]-2-phenylbutyl}benzenesulfonamide] and `Cc1nc2ccccc2n1[C@H]1C[C@H]2CC[C@@H](C1)N2CCC(CNS(=O)(=O)c1ccc(C#N)cc1)c1ccccc1` (stereo partly drawn) [Example 4, 4-cyano-N-{4-[(1R,5S)-3-(2-methyl-1H-benzimidazol-1-yl)-8-azabicyclo[3.2.1]oct-8-yl]-2-phenylbutyl}benzenesulfonamide] fall in the same range of IC50: 10 to 100 nM for the first, 10 to 100 nM for the second.

`Cc1nc2ccccc2n1[C@H]1C[C@H]2CC[C@@H](C1)N2CCC(CNS(C)(=O)=O)c1ccccc1` (stereo partly drawn) [Example 5, N-{4-[(1R,5S)-3-(2-methyl-1H-benzimidazol-1-yl)-8-azabicyclo[3.2.1]oct-8-yl]-2-phenylbutyl}methanesulfonamide] and `Cc1nc2ccccc2n1[C@H]1C[C@H]2CC[C@@H](C1)N2CCC(CNS(=O)(=O)CC(F)(F)F)c1ccccc1` (stereo partly drawn) [Example 10, 2,2,2-trifluoro-N-{4-[(1R,5S)-3-(2-methyl-1H-benzimidazol-1-yl)-8-azabicyclo[3.2.1]oct-8-yl]-2-phenylbutyl}ethanesulfonamide] fall in the same range of IC50: 10 to 100 nM for the first, 10 to 100 nM for the second.

`Cc1nc2ccccc2n1[C@H]1C[C@H]2CC[C@@H](C1)N2CCC(CNS(=O)(=O)c1cccc(C(N)=O)c1)c1ccccc1` (stereo partly drawn) [Example 6, 3-[({4-[(1R,5S)-3-(2-methyl-1H-benzimidazol-1-yl)-8-azabicyclo[3.2.1]oct-8-yl]-2-phenylbutyl}amino)sulfonyl]benzamide] and `Cc1nc2ccccc2n1C1C[C@H]2CC[C@@H](C1)N2CCC(CNS(=O)(=O)c1ccc(C(N)=O)cc1)c1ccccc1` (stereo partly drawn) [Example 8, 4-[({4-[(1R,5S)-3-(2-methyl-1H-benzimidazol-1-yl)-8-azabicyclo[3.2.1]oct-8-yl]-2-phenylbutyl}amino)sulfonyl]benzamide] fall in the same range of IC50: 10 to 100 nM for the first, 10 to 100 nM for the second.

`Cc1nc2ccccc2n1[C@H]1C[C@H]2CC[C@@H](C1)N2CCC(CNS(=O)(=O)c1ccc2[nH]c(=O)oc2c1)c1ccccc1` (stereo partly drawn) [Example 7] and `Cc1nc2ccccc2n1[C@H]1C[C@H]2CC[C@@H](C1)N2CCC(CNS(=O)(=O)NC1CCC1)c1ccccc1` (stereo partly drawn) [Example 14, N-cyclobutyl-N′-{4-[(1R,5S)-3-(2-methyl-1H-benzimidazol-1-yl)-8-azabicyclo[3.2.1]oct-8-yl]-2-phenylbutyl}sulfamide] fall in the same range of IC50: 10 to 100 nM for the first, 10 to 100 nM for the second.

`COP(=O)(NCC(CCN1[C@@H]2CC[C@H]1C[C@@H](n1c(C)nc3ccccc31)C2)c1ccccc1)OC` (stereo partly drawn) [Example 9, dimethyl{4-[(1R,5S)-3-(2-methyl-1H-benzimidazol-1-yl)-8-azabicyclo[3.2.1]oct-8-yl]-2-phenylbutyl}amidophosphate] and `Cc1nc2ccccc2n1[C@H]1C[C@H]2CC[C@@H](C1)N2CCC(CNS(=O)(=O)N1CCOCC1)c1ccccc1` (stereo partly drawn) [Example 12, N-{4-[(1R,5S)-3-(2-methyl-1H-benzimidazol-1-yl)-8-azabicyclo[3.2.1]oct-8-yl]-2-phenylbutyl}-4-mopholinesulfonamide] fall in the same range of IC50: 10 to 100 nM for the first, 10 to 100 nM for the second.

Compared with `CC(=O)N1CCc2nc(C)n([C@H]3C[C@H]4CC[C@@H](C3)N4CCC(CNS(=O)(=O)c3ccccc3)c3ccccc3)c2C1` (stereo partly drawn) [Example 13, N-{4-[(1R,5S)-3-(5-acetyl-2-methyl-4,5,6,7-tetrahydro-3H-imidazo[4,5-c]pyridin-3-yl)-8-azabicyclo[3.2.1]oct-8-yl]-2-phenylbutyl}benzenesulfonamide], `Cc1nnc(C(C)C)n1[C@H]1C[C@H]2CC[C@@H](C1)N2CCC(CNS(=O)(=O)c1ccccc1)c1ccccc1` (stereo partly drawn) [Example 17, N-(4-{(1R,5S)-3-[3-methyl-5-(1-methylethyl)-4H-1,2,4-triazol-4-yl]-8-azabicyclo[3.2.1]oct-8-yl}-2-phenylbutyl)benzenesulfonamide] is higher in IC50: under 10 nM for the first, 100 to 1000 nM for the second.

First: Cc1nc2ccccc2n1[C@H]1C[C@H]2CC[C@@H](C1)N2CCC(CNS(=O)(=O)NC1CCC(F)(F)CC1)c1ccccc1 (stereo partly drawn) [Example 15, N-(4,4-difluorocyclohexyl)-N′-{4-[(1R,5S)-3-(2-methyl-1H-benzimidazol-1-yl)-8-azabicyclo[3.2.1]oct-8-yl]-2-phenylbutyl}sulfamide]
Second: Cc1nc2ccccc2n1[C@H]1C[C@H]2CC[C@@H](C1)N2CCC(C)(CNC(=O)C1CCC(F)(F)CC1)c1ccccc1 (stereo partly drawn) [Example 21, 4,4-difluoro-N-{2-methyl-4-[(1R,5S)-3-(2-methyl-1H-benzimidazol-1-yl)-8-azabicyclo[3.2.1]oct-8-yl]-2-phenylbutyl}cyclohexanecarboxamide]
The IC50 of the first is lower: 10 to 100 nM for the first, 100 to 1000 nM for the second. The first is the more potent here.

`Cc1nnc(C(C)C)n1[C@H]1C[C@H]2CC[C@@H](C1)N2CCC(CNC(=O)C1CCC(F)(F)CC1)c1ccccc1` (stereo partly drawn) [Example 16, 4,4-difluoro-N-(4-{(1R,5S)-3-[3-methyl-5-(1-methylethyl)-4H-1,2,4-triazol-4-yl]-8-azabicyclo[3.2.1]oct-8-yl}-2-phenylbutyl)cyclohexanecarboxamide] and `Cc1nnc(C(C)C)n1[C@H]1C[C@H]2CC[C@@H](C1)N2CCC(CNC(=O)C1CC(F)(F)C1)c1ccccc1` (stereo partly drawn) [Example 18, 3,3-difluoro-N-(4-{(1R,5S)-3-[3-methyl-5-(1-methylethyl)-4H-1,2,4-triazol-4-yl]-8-azabicyclo[3.2.1]oct-8-yl}-2-phenylbutyl)cyclobutanecarboxamide] fall in the same range of IC50: 100 to 1000 nM for the first, 100 to 1000 nM for the second.

`Cc1nc2ccccc2n1[C@H]1C[C@H]2CC[C@@H](C1)N2CCC(C)(CNS(=O)(=O)c1ccccc1)c1ccccc1` (stereo partly drawn) [Example 19, N-{2-methyl-4-[(1R,5S)-3-(2-methyl-1H-benzimidazol-1-yl)-8-azabicyclo[3.2.1]oct-8-yl]-2-phenylbutyl}benzenesulfonamide] and `Cc1nnc(C(C)C)n1[C@@H]1C[C@H]2CC[C@@H](C1)N2CCC(C)(CNS(=O)(=O)c1ccccc1)c1ccccc1` (stereo partly drawn) [Example 24, N-(2-methyl-4-{(1R,5S)-3-[3-methyl-5-(1-methylethyl)-4H-1,2,4-triazol-4-yl]-8-azabicyclo[3.2.1]oct-8-yl}-2-phenylbutyl)benzenesulfonamide] fall in the same range of IC50: 100 to 1000 nM for the first, 100 to 1000 nM for the second.

`Cc1nc2ccccc2n1[C@H]1C[C@H]2CC[C@@H](C1)N2CCC(C)(CN(C)C(=O)C1CCC(F)(F)CC1)c1ccccc1` (stereo partly drawn) [Example 22, 4,4-difluoro-N-methyl-N-{2-methyl-4-[(1R,5S)-3-(2-methyl-1H-benzimidazol-1-yl)-8-azabicyclo[3.2.1]oct-8-yl]-2-phenylbutyl}cyclohexanecarboxamide] and `Cc1nnc(C(C)C)n1[C@@H]1C[C@H]2CC[C@@H](C1)N2CCC(C)(CNC(=O)C1CCC(F)(F)CC1)c1ccccc1` (stereo partly drawn) [Example 23, 4,4-difluoro-N-(2-methyl-4-{(1R,5S)-3-[3-methyl-5-(1-methylethyl)-4H-1,2,4-triazol-4-yl]-8-azabicyclo[3.2.1]oct-8-yl}-2-phenylbutyl)cyclohexanecarboxamide] fall in the same range of IC50: 100 to 1000 nM for the first, 100 to 1000 nM for the second.
